This note sets out measurements from PMC7587356, “High-Throughput Screening for Inhibitors of the SARS-CoV-2 Protease Using a FRET-Biosensor” (Molecules, 2020).

Structures are written as SMILES. Counter-ions that a name gives are not always drawn. Like-named read-outs stand apart in the source and are kept apart here.

This assay concerns the target SARS-CoV-2 3CLpro (Severe acute respiratory syndrome coronavirus 2, UniProt P0DTD1). Nature of the assay: biochemical. In kind it is biochemical. On the set-up: Replicate_1 / Replicate_2 / mean / mean (LOPAC_screen_w_protease): unit not given here. As to conditions: for inhibition at 5 µM: 4 h.
The mark [1] stands for this setting: sheet LOPAC_screen_w_protease, LOPAC1280 primary screen with protease, 5 µM compound, mean of the two replicates, read-out: mean.
Where [2] appears, read: sheet LOPAC_screen_w_protease, LOPAC1280 primary screen with protease, 5 µM compound, replicate 1, read-out: Replicate_1.
Setting [3] is: sheet LOPAC_screen_w_protease, LOPAC1280 primary screen with protease, 5 µM compound, replicate 2, read-out: Replicate_2.
Setting [4] is: sheet LOPAC_screen_w_protease, LOPAC1280 primary screen at 5 µM, with protease, mean of the two replicates.
Setting [5] is: sheet LOPAC_screen_w_protease, LOPAC1280 primary screen at 5 µM, with protease, replicate 1.
[6] abbreviates: sheet LOPAC_screen_w_protease, LOPAC1280 primary screen at 5 µM, with protease, replicate 2.
Setting [7] is: sheet LOPAC_screen_w_protease, primary screen with protease, mean of two replicates.
Where [8] appears, read: sheet LOPAC_screen_w_protease, primary screen with protease, replicate 1.
Setting [9] is: sheet LOPAC_screen_w_protease, primary screen with protease, replicate 2.
Where [10] appears, read: LOPAC1280 primary screen with protease, 5 µM compound, replicate 1, read-out: Replicate_1 (LOPAC_screen_w_protease).
The mark [11] stands for this setting: LOPAC1280 primary screen with protease, 5 µM compound, replicate 2, read-out: Replicate_2 (LOPAC_screen_w_protease).
Where [12] appears, read: LOPAC1280 primary screen with protease, 5 µM compound, mean of two replicates.
[13] abbreviates: sheet LOPAC_screen_w_protease, primary screen of LOPAC1280 at 5 µM with protease, mean of the two replicates, read-out: mean.
[14] abbreviates: sheet LOPAC_screen_w_protease, primary screen of LOPAC1280 at 5 µM with protease, replicate 1, read-out: Replicate_1.
The mark [15] stands for this setting: sheet LOPAC_screen_w_protease, primary screen of LOPAC1280 at 5 µM with protease, replicate 2, read-out: Replicate_2.
The mark [16] stands for this setting: sheet LOPAC_screen_w_protease, LOPAC1280 primary screen at 5 µM, with protease, mean of the two replicates, read-out: mean.
The mark [17] stands for this setting: sheet LOPAC_screen_w_protease, LOPAC1280 primary screen at 5 µM, with protease, replicate 1, read-out: Replicate_1.
Setting [18] is: sheet LOPAC_screen_w_protease, LOPAC1280 primary screen at 5 µM, with protease, replicate 2, read-out: Replicate_2.
Where [19] appears, read: sheet LOPAC_screen_w_protease, LOPAC1280 primary screen with protease, 5 µM compound, mean of the two replicates.
[20] abbreviates: sheet LOPAC_screen_w_protease, LOPAC1280 primary screen with protease, 5 µM compound, replicate 1.
[21] abbreviates: sheet LOPAC_screen_w_protease, LOPAC1280 primary screen with protease, 5 µM compound, replicate 2.
Setting [22] is: sheet LOPAC_screen_w_protease, primary screen with protease, 5 µM, mean of two replicates, read-out: mean.
Setting [23] is: sheet LOPAC_screen_w_protease, primary screen with protease, 5 µM, replicate 1, read-out: Replicate_1.
The mark [24] stands for this setting: sheet LOPAC_screen_w_protease, primary screen with protease, 5 µM, replicate 2, read-out: Replicate_2.
The mark [25] stands for this setting: sheet LOPAC_screen_w_protease, primary screen with protease, 5 µM, mean of two replicates.
Where [26] appears, read: sheet LOPAC_screen_w_protease, primary screen with protease, 5 µM, replicate 1.
[27] abbreviates: sheet LOPAC_screen_w_protease, primary screen with protease, 5 µM, replicate 2.
[28] abbreviates: LOPAC1280 primary screen with protease, 5 µM compound, mean of the two replicates.

On to `Cc1cc(N)c2ccccc2[n+]1CCCCCCCCCC[n+]1c(C)cc(N)c2ccccc21` [Dequalinium dichloride], for which the inhibition at 5 µM runs as follows: (read-out: Replicate_1) 2.94%; (read-out: Replicate_2) 1.41%; (read-out: mean) 2.17%.
In the case of `Cc1ccccc1CNc1ncnc2c1ncn2[C@@H]1O[C@H](CO)[C@@H](O)[C@H]1O` [Metrifudil], the inhibition at 5 µM is, setting by setting: under setting [1], 4.56%; under setting [2], 4.09%; under setting [3], 5.03%.
Take `CC(C)COCC(CN(Cc1ccccc1)c1ccccc1)N1CCCC1` (stereo not drawn) [Bepridil hydrochloride]: the inhibition at 5 µM by setting is: (read-out: Replicate_1 (LOPAC screen with protease)) 8.81%; (read-out: Replicate_2 (LOPAC screen with protease)) 7.08%; (read-out: mean (LOPAC screen with protease)) 7.94%.
For the molecule `N=C(N)N1CCc2ccccc2C1` [Debrisoquin sulfate], the inhibition at 5 µM was 2.87% (read-out: Replicate_1), 3.04% (read-out: Replicate_2) and 2.96% (read-out: mean).
The molecule `Cl.Cl.Clc1cccc(N2CCNCC2)c1` registered a mean under setting [4] of 0.4258. The Replicate_1 under setting [5] is 0.3435. Further, the Replicate_2 under setting [6] is recorded as 0.5081.
Take `CC(=O)N[C@@H](Cc1c[nH]c2ccccc12)C(=O)OCc1cc(C(F)(F)F)cc(C(F)(F)F)c1` [L-732,138]: the mean under setting [7] was 2.284. This molecule displayed a Replicate_1 under setting [8] of 2.97. Under setting [9], this molecule displayed a Replicate_2 of 1.597.
In the case of `Cc1cc(C)c(NC(=O)C[C@H](CC(=O)O)c2cccc3ccccc23)c(C(=O)N2CCC3(CCCC3)CC2)c1` [CR 2945], the inhibition at 5 µM was 3.19% under setting [10] and 0.22% under setting [11]. For the same molecule, the “mean (LOPAC_screen_w_protease)” value under setting [12] came to 1.703.
In the case of `N#C/C(=C\c1ccc(O)c(O)c1)C(=O)Nc1ccccc1` [Tyrphostin AG 494], the inhibition at 5 µM by setting is: under setting [13], 4.07%; under setting [14], 4.44%; under setting [15], 3.69%.
Under setting [4], `COc1ccc2[nH]c3c(c2c1)CCNC3` came in with a mean of 0.4216. This molecule came in with a Replicate_1 under setting [5] of 0.4542. The Replicate_2 under setting [6] is listed as 0.3889.
For the molecule `C1CNCCN1.COc1cc(C(O)CO)ccc1O.COc1cc(C(O)CO)ccc1O` (stereo not drawn) [MHPG piperazine], the Replicate_1 was found to be 4.5396, the Replicate_2 is 3.9909 and the mean is 4.265.
Under setting [4], `COc1ccc(NC(=O)c2ccc(-c3ccc(-c4noc(C)n4)cc3C)cc2)cc1N1CCN(C)CC1.Cl` [GR 127935 hydrochloride] showed a mean of 0.6456. The Replicate_1 under setting [5] stood at 0.5978. Moreover, the Replicate_2 under setting [6] came out at 0.6934.
`O=C1NCN(c2ccccc2)C12CCN(CC1COc3ccccc3O1)CC2` (stereo not drawn) [Spiroxatrine]: the inhibition at 5 µM by setting is: under setting [16], 0.522%; under setting [17], 1.86%; under setting [18], -0.819%.
On to `CN1C(C(=O)Nc2ccccn2)=C(O)c2ccccc2S1(=O)=O` [Piroxicam], for which the inhibition at 5 µM by setting is: (sheet LOPAC_screen_w_protease, primary screen with protease, compound at 5 µM, mean of two replicates, read-out: mean) 3.01%; (sheet LOPAC_screen_w_protease, primary screen with protease, compound at 5 µM, replicate 1, read-out: Replicate_1) 1.9%; (sheet LOPAC_screen_w_protease, primary screen with protease, compound at 5 µM, replicate 2, read-out: Replicate_2) 4.12%.
Under setting [19], `CC1OC(C[N+](C)(C)C)CS1.[I-]` (stereo not drawn) [OXA-22 iodide] yielded a mean of 6.327. Besides, the Replicate_1 under setting [20] is given as 7.065. In addition, under setting [21], the Replicate_2 turned out to be 5.588.
`CCCCCCCCCCCCCCCCCC(=O)NCC(COP(=O)([O-])OCC[N+](C)(C)C)OCC` (racemic) registered a mean (sheet LOPAC_screen_w_protease, primary screen with protease, compound at 5 µM, mean of two replicates) of 3.086. Also, for the setting “sheet LOPAC_screen_w_protease, primary screen with protease, compound at 5 µM, replicate 1”, the Replicate_1 amounted to 5.031. Besides, the Replicate_2 (sheet LOPAC_screen_w_protease, primary screen with protease, compound at 5 µM, replicate 2) stood at 1.141.
Molecule `NC(CCP(=O)(O)O)C(=O)O` (racemic) [(±)-2-Amino-4-phosphonobutyric acid] registered a mean (sheet LOPAC_screen_w_protease, LOPAC1280 at 5 µM, mean of two replicates) of 1.206. Where the note is “sheet LOPAC_screen_w_protease, LOPAC1280 at 5 µM, replicate 1”, this molecule had a Replicate_1 of 2.762. This molecule also yielded a Replicate_2 (sheet LOPAC_screen_w_protease, LOPAC1280 at 5 µM, replicate 2) of -0.351.
As for `CN1CCN(C2=Nc3ccccc3Oc3ccc(Cl)cc32)CC1` [Loxapine succinate], the inhibition at 5 µM was -0.686% under setting [22], -0.577% under setting [23] and -0.795% under setting [24].
In the case of `CC[N+](CC)(CC)CCOc1cccc(OCC[N+](CC)(CC)CC)c1OCC[N+](CC)(CC)CC` [Gallamine triethiodide], the inhibition at 5 µM (sheet LOPAC_screen_w_protease, primary screen at 5 µM, mean of two replicates, read-out: mean (LOPAC screen with protease)) was 11.3%; the inhibition at 5 µM (sheet LOPAC_screen_w_protease, primary screen at 5 µM, replicate 1, read-out: Replicate_1 (LOPAC screen with protease)) was 12.1%; the inhibition at 5 µM (sheet LOPAC_screen_w_protease, primary screen at 5 µM, replicate 2, read-out: Replicate_2 (LOPAC screen with protease)) was found to be 10.6%.
On to `N=C(N)NC(=N)Nc1ccccc1` [1-Phenylbiguanide], for which the mean under setting [4] is on record as 0.7649. Also, under setting [5], the Replicate_1 is listed as -0.09991. The Replicate_2 under setting [6] is 1.6298.
Take `CCc1ccccc1OC[C@@H](O)CN[C@H]1CCCc2ccccc21.O=C(O)C(=O)O` [SR 59230A oxalate]: the mean under setting [25] is on record as -0.0002221. In addition, the Replicate_1 under setting [26] came to 1.088. Under setting [27], the Replicate_2 is -1.089.
For the molecule `Cl.N=C(N)NC(=N)Nc1cccc(Cl)c1`, under setting [28], the “mean (LOPAC_screen_w_protease)” value is given as 1.751. The “Replicate_1 (LOPAC_screen_w_protease)” value (LOPAC1280 primary screen with protease, 5 µM compound, replicate 1) is 2.329. The “Replicate_2 (LOPAC_screen_w_protease)” value (LOPAC1280 primary screen with protease, 5 µM compound, replicate 2) is 1.173.
For the molecule `NC(N)=Nc1ccc2[nH]c3c(c2c1)C[C@@]1(O)[C@H]2Cc4ccc(O)c5c4[C@@]1(CCN2CC1CC1)[C@H]3O5.O=C(O)C(F)(F)F.O=C(O)C(F)(F)F`, the mean under setting [19] stood at 5.687. Besides, under setting [20], the Replicate_1 is 7.859. Besides, the Replicate_2 under setting [21] was found to be 3.515.
`Cc1ccc(N(CC2=NCCN2)c2cccc(O)c2)cc1` [Phentolamine mesylate]: the inhibition at 5 µM is, setting by setting: under setting [22], -0.0499%; under setting [23], -0.162%; under setting [24], 0.062%.
Regarding `CCCN(CCC)CCc1ccc(O)c(O)c1` [Dipropyldopamine hydrobromide], the inhibition at 5 µM came out at 3.8% under setting [10] and 0.246% under setting [11]. Besides, under setting [28], the “mean (LOPAC_screen_w_protease)” value worked out at 2.021.
Under setting [7], `O=c1[nH]c2ccccc2c2ccccc12` [6(5H)-Phenanthridinone] came in with a mean of 2.579. The Replicate_1 under setting [8] was determined as 3.064. In addition, the Replicate_2 under setting [9] turned out to be 2.0946.
On to `NS(=O)(=O)Cc1noc2ccccc12` [Zonisamide sodium], for which the inhibition at 5 µM is, setting by setting: under setting [16], 0.586%; under setting [17], -0.00469%; under setting [18], 1.18%.
Turning to `CC1=C(/C=C/C(C)=C/C=C/C(C)=C/C=C/C=C(C)/C=C/C=C(C)/C=C/C2=C(C)C(=O)[C@@H](O)CC2(C)C)C(C)(C)C[C@H](O)C1=O` [Astaxanthin], the inhibition at 5 µM is 3.4% under setting [13], 2.58% under setting [14] and 4.22% under setting [15].
The molecule `Cc1nc(N=Nc2ccc(S(=O)(=O)O)cc2S(=O)(=O)O)c(COP(=O)(O)O)c(C=O)c1O` [PPADS] returned a mean under setting [25] of 0.05886. The Replicate_1 under setting [26] is -0.6012. For the same molecule, the Replicate_2 under setting [27] was determined as 0.7189.
As to `NC(=O)c1ncn([C@@H]2O[C@H](CO)[C@@H](O)[C@H]2O)c1O` [Mizoribine], the inhibition at 5 µM was determined as 4.8% under setting [1], 4.56% under setting [2] and 5.05% under setting [3].
In the case of `CCN(CC)CCOC(=O)c1ccc(N)cc1` [Procaine hydrochloride], the inhibition at 5 µM stood at 1.06% under setting [10] and 1.81% under setting [11]. In addition, the “mean (LOPAC_screen_w_protease)” value under setting [12] was found to be 1.433.
